Assay results as given in patent US12215127B2 (priority 2020, dated 2025).

Target: Clostridium perfringens CGH (Clostridium perfringens, UniProt P54965)
Assay type: binding
Details: 0-500 μM, 37° C., 24 h, in-gel fluorescence

Chain of Clostridium perfringens CGH (P54965 whole entry, looked up): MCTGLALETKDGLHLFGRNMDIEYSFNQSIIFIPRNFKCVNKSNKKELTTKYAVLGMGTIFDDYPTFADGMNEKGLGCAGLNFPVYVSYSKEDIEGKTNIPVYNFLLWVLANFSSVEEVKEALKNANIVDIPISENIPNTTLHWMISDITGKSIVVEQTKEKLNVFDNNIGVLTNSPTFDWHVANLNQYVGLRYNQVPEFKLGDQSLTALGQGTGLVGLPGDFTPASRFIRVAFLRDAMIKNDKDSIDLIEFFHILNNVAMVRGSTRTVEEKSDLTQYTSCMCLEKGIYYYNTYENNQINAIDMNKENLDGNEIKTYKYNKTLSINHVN

SMILES | labeling of C. perfringens BSH
Cc1cccc(C)c1C(=O)OCC(=O)CC[C@@H](C)[C@H]1CC[C@H]2[C@@H]3[C@H](O)C[C@@H]4C[C@H](N=[N+]=[N-])CC[C@]4(C)[C@H]3CC[C@]12C [CDCA-AOMK, N3-CDCA-AOMK] | label Clostridium perfringens bile salt hydrolase (BSH)
Cc1cccc(C)c1C(=O)OCC(=O)CC[C@@H](C)[C@H]1CC[C@H]2[C@@H]3CC[C@@H]4C[C@H](N=[N+]=[N-])CC[C@]4(C)[C@H]3C[C@H](O)[C@]12C [DCA-AOMK, N3-DCA-AOMK] | label Clostridium perfringens bile salt hydrolase (BSH)
